Test results: patent US20210070748A1, “INHIBITORS OF BRUTONS TYROSINE KINASE” (Pharmacyclics LLC, priority 2015, published 2021)
pIC50: −log10 of the molar value.

Columns and labels:
Type in all cases: biochemical
LCK = LCK (Homo sapiens, UniProt P06239); experiment: Inhibition of a panel of kinases, in vitro HotSpot kinase assay: LCK; conditions: D-compounds panel data; 1 μM ATP; read-out: IC50 LCK
JAK3 = biological target: T1, JAK3 (Homo sapiens, UniProt P52333); experiment: Inhibition of a panel of kinases, in vitro HotSpot kinase assay: JAK3; conditions: D-compounds panel data; 1 μM ATP; read-out: IC50 JAK3
T1 sequence (P52333 1-1124): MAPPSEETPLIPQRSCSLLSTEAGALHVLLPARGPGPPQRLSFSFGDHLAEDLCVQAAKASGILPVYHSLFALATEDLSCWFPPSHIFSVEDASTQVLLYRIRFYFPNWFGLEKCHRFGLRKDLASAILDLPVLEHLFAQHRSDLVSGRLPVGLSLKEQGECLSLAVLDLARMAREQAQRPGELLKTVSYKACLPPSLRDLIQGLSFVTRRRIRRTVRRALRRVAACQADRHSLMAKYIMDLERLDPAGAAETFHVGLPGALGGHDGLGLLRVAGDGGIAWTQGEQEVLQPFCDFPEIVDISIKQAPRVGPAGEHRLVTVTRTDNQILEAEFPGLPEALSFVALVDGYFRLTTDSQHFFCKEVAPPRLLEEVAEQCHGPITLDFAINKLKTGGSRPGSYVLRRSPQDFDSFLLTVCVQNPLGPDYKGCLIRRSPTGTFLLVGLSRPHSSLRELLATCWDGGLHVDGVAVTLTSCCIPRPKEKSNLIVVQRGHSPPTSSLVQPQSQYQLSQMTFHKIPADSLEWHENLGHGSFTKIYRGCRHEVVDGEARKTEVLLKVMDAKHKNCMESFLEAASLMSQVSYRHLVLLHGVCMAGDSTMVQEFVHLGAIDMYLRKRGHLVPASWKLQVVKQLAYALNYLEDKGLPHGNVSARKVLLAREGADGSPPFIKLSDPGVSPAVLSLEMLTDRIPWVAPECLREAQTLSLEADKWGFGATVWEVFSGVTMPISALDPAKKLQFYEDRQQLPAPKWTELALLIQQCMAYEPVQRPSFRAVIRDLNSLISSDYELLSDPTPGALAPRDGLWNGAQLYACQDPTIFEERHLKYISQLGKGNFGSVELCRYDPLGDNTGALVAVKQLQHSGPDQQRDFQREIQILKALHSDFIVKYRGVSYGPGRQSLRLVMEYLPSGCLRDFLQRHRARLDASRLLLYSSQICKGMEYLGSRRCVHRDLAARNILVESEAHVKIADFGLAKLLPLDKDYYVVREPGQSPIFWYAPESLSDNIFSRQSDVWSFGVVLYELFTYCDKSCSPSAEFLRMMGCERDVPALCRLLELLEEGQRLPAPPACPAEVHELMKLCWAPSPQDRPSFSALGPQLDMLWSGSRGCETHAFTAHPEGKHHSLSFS

EGFR = EGFR (Homo sapiens, UniProt P00533); experiment: Inhibition of a panel of kinases, in vitro HotSpot kinase assay: EGFR; conditions: D-compounds panel data; 1 μM ATP
EGFR, sequence (P00533 25-1210): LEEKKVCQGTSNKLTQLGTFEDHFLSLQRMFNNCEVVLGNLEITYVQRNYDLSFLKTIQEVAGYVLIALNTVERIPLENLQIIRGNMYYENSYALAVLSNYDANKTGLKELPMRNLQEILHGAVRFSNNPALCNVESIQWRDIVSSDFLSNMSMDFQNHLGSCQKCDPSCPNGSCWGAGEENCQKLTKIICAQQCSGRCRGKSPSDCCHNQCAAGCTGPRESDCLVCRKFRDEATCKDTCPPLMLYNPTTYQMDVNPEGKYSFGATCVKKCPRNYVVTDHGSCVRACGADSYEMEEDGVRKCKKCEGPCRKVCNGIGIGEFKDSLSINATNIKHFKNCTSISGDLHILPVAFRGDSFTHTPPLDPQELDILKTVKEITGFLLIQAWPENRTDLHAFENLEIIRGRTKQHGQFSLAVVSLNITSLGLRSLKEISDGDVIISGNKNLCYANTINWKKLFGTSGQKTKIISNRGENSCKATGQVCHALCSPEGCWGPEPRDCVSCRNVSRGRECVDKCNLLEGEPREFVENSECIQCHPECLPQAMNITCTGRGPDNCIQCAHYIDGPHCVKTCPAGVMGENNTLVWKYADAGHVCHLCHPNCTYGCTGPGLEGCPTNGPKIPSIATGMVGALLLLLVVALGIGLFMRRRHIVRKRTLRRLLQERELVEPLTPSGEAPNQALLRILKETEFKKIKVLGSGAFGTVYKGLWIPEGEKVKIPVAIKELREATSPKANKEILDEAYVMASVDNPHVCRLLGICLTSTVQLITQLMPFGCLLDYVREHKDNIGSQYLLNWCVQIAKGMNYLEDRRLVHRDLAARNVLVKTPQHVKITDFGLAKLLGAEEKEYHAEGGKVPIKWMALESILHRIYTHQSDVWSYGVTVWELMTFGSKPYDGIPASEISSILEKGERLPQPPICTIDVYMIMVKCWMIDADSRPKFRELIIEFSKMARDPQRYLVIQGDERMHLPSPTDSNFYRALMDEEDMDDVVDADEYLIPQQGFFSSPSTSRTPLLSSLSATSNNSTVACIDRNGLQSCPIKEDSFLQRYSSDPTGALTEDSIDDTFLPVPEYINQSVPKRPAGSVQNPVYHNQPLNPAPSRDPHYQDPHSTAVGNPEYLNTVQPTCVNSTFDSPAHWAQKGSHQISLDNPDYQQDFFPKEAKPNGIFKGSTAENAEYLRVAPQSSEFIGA
Method: (§1) The degree of inhibition of a panel of kinases is determined using the in vitro HotSpot kinase assay (purified enzymes, ^33P-ATP, an appropriate substrate and 1 μM ATP).

ITK = biological target: T2, ITK (Homo sapiens, UniProt Q08881); experiment: Inhibition of a panel of kinases, in vitro HotSpot kinase assay: ITK; conditions: D-compounds panel data; 1 μM ATP
T2 sequence (Q08881 1-620): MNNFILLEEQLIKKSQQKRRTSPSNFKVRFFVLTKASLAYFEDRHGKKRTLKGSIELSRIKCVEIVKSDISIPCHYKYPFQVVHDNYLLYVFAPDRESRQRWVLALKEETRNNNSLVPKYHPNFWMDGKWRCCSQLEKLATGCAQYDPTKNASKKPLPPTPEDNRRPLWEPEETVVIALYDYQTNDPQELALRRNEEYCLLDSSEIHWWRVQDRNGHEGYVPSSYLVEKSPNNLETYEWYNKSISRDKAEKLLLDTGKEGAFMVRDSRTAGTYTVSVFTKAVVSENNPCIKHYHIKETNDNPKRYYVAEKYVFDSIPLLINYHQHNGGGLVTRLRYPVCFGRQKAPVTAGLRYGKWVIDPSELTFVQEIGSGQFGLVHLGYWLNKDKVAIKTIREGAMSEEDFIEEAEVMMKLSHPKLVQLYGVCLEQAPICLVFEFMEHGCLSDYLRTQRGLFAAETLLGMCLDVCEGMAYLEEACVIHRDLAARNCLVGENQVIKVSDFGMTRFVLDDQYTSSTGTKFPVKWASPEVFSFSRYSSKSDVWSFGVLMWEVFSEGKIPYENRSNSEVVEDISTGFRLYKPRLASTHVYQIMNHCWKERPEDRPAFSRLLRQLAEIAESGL
Method: as §1

TEC = biological target: T3, TEC (Homo sapiens, UniProt P42680); experiment: Inhibition of a panel of kinases, in vitro HotSpot kinase assay: TEC; conditions: D-compounds panel data; 1 μM ATP
T3 sequence (P42680 1-631): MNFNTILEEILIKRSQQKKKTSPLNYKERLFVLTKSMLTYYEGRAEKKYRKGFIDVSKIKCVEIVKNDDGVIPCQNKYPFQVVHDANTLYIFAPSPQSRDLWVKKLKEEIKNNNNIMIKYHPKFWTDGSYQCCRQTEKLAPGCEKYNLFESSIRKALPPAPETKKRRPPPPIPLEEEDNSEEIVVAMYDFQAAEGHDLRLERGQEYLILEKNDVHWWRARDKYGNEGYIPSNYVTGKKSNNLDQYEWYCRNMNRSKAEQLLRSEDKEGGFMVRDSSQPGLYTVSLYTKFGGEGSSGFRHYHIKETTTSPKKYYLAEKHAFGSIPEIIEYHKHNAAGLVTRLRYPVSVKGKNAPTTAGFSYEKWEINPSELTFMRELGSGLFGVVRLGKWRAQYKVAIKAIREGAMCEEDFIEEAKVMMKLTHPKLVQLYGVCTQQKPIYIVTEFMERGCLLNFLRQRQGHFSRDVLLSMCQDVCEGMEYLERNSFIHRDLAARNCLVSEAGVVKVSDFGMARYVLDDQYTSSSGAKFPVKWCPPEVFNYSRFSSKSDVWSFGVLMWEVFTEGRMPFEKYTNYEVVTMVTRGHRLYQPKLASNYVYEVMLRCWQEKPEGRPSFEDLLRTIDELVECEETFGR
Method: as §1

LCK, sequence (P06239 whole entry): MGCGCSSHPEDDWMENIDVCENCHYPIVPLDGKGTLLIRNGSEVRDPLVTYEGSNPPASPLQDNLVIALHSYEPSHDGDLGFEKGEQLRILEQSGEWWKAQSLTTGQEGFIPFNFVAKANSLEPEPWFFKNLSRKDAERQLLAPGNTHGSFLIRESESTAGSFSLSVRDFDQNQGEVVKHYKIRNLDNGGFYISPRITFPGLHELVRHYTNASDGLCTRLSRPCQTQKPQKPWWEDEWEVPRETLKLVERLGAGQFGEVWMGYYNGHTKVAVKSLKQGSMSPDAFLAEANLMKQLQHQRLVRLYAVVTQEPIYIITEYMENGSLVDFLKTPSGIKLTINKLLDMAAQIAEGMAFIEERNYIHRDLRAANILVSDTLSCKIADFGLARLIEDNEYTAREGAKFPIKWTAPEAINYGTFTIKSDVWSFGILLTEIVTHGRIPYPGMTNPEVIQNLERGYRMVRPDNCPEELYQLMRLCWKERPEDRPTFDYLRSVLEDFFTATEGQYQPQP

SMILES | pIC50 (LCK) | pIC50 (JAK3) | pIC50 (EGFR) | pIC50 (ITK) | pIC50 (TEC)
C[C@@H]1[C@H](NC(=O)c2ccc(C3CC3)cn2)CCCN1c1cnc(C(N)=O)c(Nc2ccc(N3CCN(C)CC3)cc2)n1 [Example D-188, 5-[(2R,3R)-3-(5-cyclopropylpyridine-2-amido)-2-methylpiperidin-1-yl]-3-{[4-(4-methylpiperazin-1-yl)phenyl]amino}pyrazine-2-carboxamide] | 6.00 to 7.00 | 5.00 to 6.00 | 6.00 to 7.00 | 6.00 to 7.00 | 7.00 to 8.00
C[C@@H]1[C@H](NC(=O)c2ccc3c(c2)OCCO3)CCCN1c1cnc(C(N)=O)c(Nc2cnn(C)c2)n1 [Example D-224, 5-[(2R,3R)-3-(2,3-dihydro-1,4-benzodioxine-6-amido)-2-methylpiperidin-1-yl]-3-[(1-methyl-1H-pyrazol-4-yl)amino]pyrazine-2-carboxamide] | 6.00 to 7.00 | 5.00 to 6.00 | 6.00 to 7.00 | 6.00 to 7.00 | ≥ 8.00
C[C@@H]1[C@H](NC(=O)c2ccc(C3CC3)cc2F)CCCN1c1cnc(C(N)=O)c(Nc2cc(CN3CCOCC3)ns2)n1 [Example D-173, 5-[(2R,3R)-3-(4-cyclopropyl-2-fluorobenzamido)-2-methylpiperidin-1-yl]-3-{[3-(morpholin-4-ylmethyl)-1,2-thiazol-5-yl]amino}pyrazine-2-carboxamide] | 7.00 to 8.00 | 6.00 to 7.00 | 6.00 to 7.00 | 6.00 to 7.00 | 7.00 to 8.00
C[C@@H]1[C@H](NC(=O)c2ccc(C(O)(C(F)(F)F)C(F)(F)F)cc2)CCCN1c1cnc(C(N)=O)c(Nc2cnn(C)c2)n1 [Example D-240, 5-[(2R,3R)-3-[4-(1,1,1,3,3,3-hexafluoro-2-hydroxypropan-2-yl)benzamido]-2-methylpiperidin-1-yl]-3-[(1-methyl-1H-pyrazol-4-yl)amino]pyrazine-2-carboxamide] | 6.00 to 7.00 | 5.00 to 6.00 | 6.00 to 7.00 | 6.00 to 7.00 | 7.00 to 8.00
COc1cc(C(=O)N[C@@H]2CCCN(c3cnc(C(N)=O)c(Nc4cnn(C)c4)n3)[C@@H]2C)ccc1C1CC1 [Example D-231, 5-[(2R,3R)-3-(4-cyclopropyl-3-methoxybenzamido)-2-methylpiperidin-1-yl]-3-[(1-methyl-1H-pyrazol-4-yl)amino]pyrazine-2-carboxamide] | 6.00 to 7.00 | < 5.00 | 5.00 to 6.00 | 6.00 to 7.00 | 7.00 to 8.00
Cn1cc(Nc2nc(N3C4CCC(NC(=O)c5ccc(C6CC6)cc5)C3CC4)cnc2C(N)=O)cn1 (single isomer, unassigned) [Example D-200, 5-[2-(4-cyclopropylbenzamido)-8-azabicyclo[32.1]octan-8-yl]-3-[(1-methyl-1H-pyrazol-4-yl)amino]pyrazine-2-carboxamide] | 5.00 to 6.00 | < 5.00 | 5.00 to 6.00 | < 5.00 | 5.00 to 6.00
Cc1nc2cc(C(=O)N[C@@H]3CCCN(c4cnc(C(N)=O)c(Nc5cnn(C)c5)n4)[C@@H]3C)ccc2o1 [Example D-238, N-[(2R,3R)-1-{5-carbamoyl-6-[(1-methyl-1H-pyrazol-4-yl)amino]pyrazin-2-yl}-2-methylpiperidin-3-yl]-2-methyl-1,3-benzoxazole-5-carboxamide] | 7.00 to 8.00 | 6.00 to 7.00 | 6.00 to 7.00 | 6.00 to 7.00 | ≥ 8.00
Cn1cc(Nc2nc(N3CCC[C@@H](n4ccc5cc(C6CC6)ncc5c4=O)C3)cnc2C(N)=O)cn1 [Example D-225, 5-[(3R)-3-(6-cyclopropyl-1-oxo-1,2-dihydro-2,7-naphthyridin-2-yl)piperidin-1-yl]-3-[(1-methyl-1H-pyrazol-4-yl)amino]pyrazine-2-carboxamide] | 6.00 to 7.00 | 6.00 to 7.00 | 5.00 to 6.00 | 6.00 to 7.00 | ≥ 8.00
Cc1cc(Nc2nc(N3C[C@H](NC(=O)c4ccc(C5CC5)cc4F)CC[C@@H]3C)cnc2C(N)=O)sn1 [Example D-181, 5-[(2S,5R)-5-(4-cyclopropyl-2-fluorobenzamido)-2-methylpiperidin-1-yl]-3-[(3-methyl-1,2-thiazol-5-yl)amino]pyrazine-2-carboxamide] | 6.00 to 7.00 | 6.00 to 7.00 | 6.00 to 7.00 | 5.00 to 6.00 | 7.00 to 8.00
C[C@@H]1[C@H](NC(=O)c2ccc(SC(F)(F)F)cc2)CCCN1c1cnc(C(N)=O)c(Nc2cnn(C)c2)n1 [Example D-241, 3-[(1-methyl-1H-pyrazol-4-yl)amino]-5-[(2R,3R)-2-methyl-3-{4-[(trifluoromethyl)sulfanyl]benzamido}piperidin-1-yl]pyrazine-2-carboxamide] | 6.00 to 7.00 | 5.00 to 6.00 | 6.00 to 7.00 | 5.00 to 6.00 | 7.00 to 8.00
C[C@@H]1[C@H](NC(=O)c2cnc(C(C)(C)C)s2)CCCN1c1cnc(C(N)=O)c(Nc2cnn(C)c2)n1 [Example D-239, 5-[(2R,3R)-3-(2-tert-butyl-1,3-thiazole-5-amido)-2-methylpiperidin-1-yl]-3-[(1-methyl-1H-pyrazol-4-yl)amino]pyrazine-2-carboxamide] | 7.00 to 8.00 | 6.00 to 7.00 | 6.00 to 7.00 | 6.00 to 7.00 | ≥ 8.00
C[C@@H]1[C@H](NC(=O)c2ccc(C3(O)CCCC3)cc2)CCCN1c1cnc(C(N)=O)c(Nc2cnn(C)c2)n1 [Example D-212, 5-[(2R,3R)-3-[4-(1-hydroxycyclopentyl)benzamido]-2-methylpiperidin-1-yl]-3-[(1-methyl-1H-pyrazol-4-yl)amino]pyrazine-2-carboxamide] | 6.00 to 7.00 | 6.00 to 7.00 | 5.00 to 6.00 | 6.00 to 7.00 | ≥ 8.00
Cn1cc(Nc2nc(N3C4CCC(NC(=O)c5ccc(C6CC6)cc5)C3CC4)cnc2C(N)=O)cn1 (single isomer, unassigned) [Example D-199, 5-[2-(4-cyclopropylbenzamido)-8-azabicyclo[3.2.1]octan-8-yl]-3-[(1-methyl-1H-pyrazol-4-yl)amino]pyrazine-2-carboxamide] | < 5.00 | 5.00 to 6.00 | < 5.00 | < 5.00 | 5.00 to 6.00
